Reference: patent US20230340011A1 (Asteroid Therapeutics, priority 2022, published 2023)

Experiments:
SREBP-2 = SREBP-2 (Homo sapiens (Human), UniProt Q12772); assay: In vitro assay SREBP-2: PathHunter U2OS SREBP-2 Nuclear Translocation Cell Line, U18666A-stimulated; assay type: cell-based; conditions: PathHunter U2OS SREBP-2 nuclear translocation cells, U18666A 10 μM, overnight (16 hours)
LXRβ = LXRβ (Homo sapiens (Human), UniProt P55055); assay: In vitro assay LXRβ: PathHunter NHR CHO cells, LXRβ / Steroid Receptor Co-activator Peptide enzyme fragment complementation; assay type: cell-based; conditions: PathHunter NHR CHO cells, full-length human LXRβ and SRCP, chemiluminescent signal; read-out: LXRβ PPI
LXRβ, sequence (P55055 whole entry, the tested form may be a part): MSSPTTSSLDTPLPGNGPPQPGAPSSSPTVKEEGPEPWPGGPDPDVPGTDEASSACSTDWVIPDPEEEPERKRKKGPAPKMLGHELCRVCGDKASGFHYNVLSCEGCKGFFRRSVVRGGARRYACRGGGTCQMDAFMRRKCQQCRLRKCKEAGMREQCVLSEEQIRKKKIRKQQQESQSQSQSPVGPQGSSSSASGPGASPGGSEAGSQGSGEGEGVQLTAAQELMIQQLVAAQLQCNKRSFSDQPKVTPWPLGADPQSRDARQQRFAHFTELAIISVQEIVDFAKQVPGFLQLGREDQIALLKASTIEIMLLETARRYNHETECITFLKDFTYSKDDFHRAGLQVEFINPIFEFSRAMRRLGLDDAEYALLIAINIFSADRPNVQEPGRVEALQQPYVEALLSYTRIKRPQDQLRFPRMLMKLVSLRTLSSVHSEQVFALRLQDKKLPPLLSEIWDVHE
Procedure, shortened: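 Co-activator recruitment measured by chemiluminescence after signal generation. The CHO line carries full-length human LXRβ tagged with ProLink and an SRCP–enzyme acceptor fusion in the nucleus; cells sat overnight at 37° C before testing, in charcoal-dextran filtered serum medium with 1% final vehicle.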

Q: For `CNC(=O)C1(C)CCN(C(=O)CC[C@@H](C)[C@H]2CC[C@H]3[C@@H]4CC=C5C[C@@H](O)CC[C@]5(C)[C@H]4CC[C@]23C)CC1` [Example 86, 1-((R)-4-((3S,8S,9S,10R,13R,14S,17R)-3-hydroxy-10,13-dimethyl-2,3,4,7,8,9,10,11,12,13,14,15,16,17-tetradecahydro-1H-cyclopenta[a]phenanthren-17-yl)pentanoyl)-N,4-dimethylpiperidine-4-carboxamide], which IC50 (SREBP-2) is on record?
A: Its IC50 is 250 to 1000 nM.

Q: And the EC50 (LXRβ)?
A: Its EC50 is > 10000 nM.

Q: For `C[C@H](CCC(=O)N1CCN(c2cnn(C)c2)[C@@H](C)C1)[C@H]1CC[C@H]2[C@@H]3CC=C4C[C@@H](O)CC[C@]4(C)[C@H]3CC[C@]12C` [Example 656, (R)-4-((3S,8S,9S,10R,13R,14S,17R)-3-hydroxy-10,13-dimethyl-2,3,4,7,8,9,10,11,12,13,14,15,16,17-tetradecahydro-1H-cyclopenta[a]phenanthren-17-yl)-1-((S)-3-methyl-4-(1-methyl-1H-pyrazol-4-yl)piperazin-1-yl)pentan-1-one], which IC50 (SREBP-2) is on record?
A: The IC50 was < 250 nM.

Q: And the EC50 (LXRβ)?
A: Its EC50 is > 10000 nM.

Q: `C[C@H](CCC(=O)N1CCN(c2ccncc2)CC1)[C@H]1CC[C@H]2[C@@H]3CC=C4C[C@@H](O)CC[C@]4(C)[C@H]3CC[C@]12C` [Example 396, (R)-4-((3S,8S,9S,10R,13R,14S,17R)-3-hydroxy-10,13-dimethyl-2,3,4,7,8,9,10,11,12,13,14,15,16,17-tetradecahydro-1H-cyclopenta[a]phenanthren-17-yl)-1-(4-(pyridin-4-yl)piperazin-1-yl)pentan-1-one] was tested. Which IC50 (SREBP-2) did it give?
A: The IC50 was < 250 nM.

Q: And the EC50 (LXRβ)?
A: The EC50 was > 10000 nM.

Q: Which IC50 (SREBP-2) does the source give for `C[C@H](CCC(=O)N1CCN(c2ncncc2C(F)(F)F)CC1)[C@H]1CC[C@H]2[C@@H]3CC=C4C[C@@H](O)CC[C@]4(C)[C@H]3CC[C@]12C` [Example 619, (R)-4-((3S,8S,9S,10R,13R,14S,17R)-3-hydroxy-10,13-dimethyl-2,3,4,7,8,9,10,11,12,13,14,15,16,17-tetradecahydro-1H-cyclopenta[a]phenanthren-17-yl)-1-(4-(5-(trifluoromethyl)pyrimidin-4-yl)piperazin-1-yl)pentan-1-one] here?
A: The IC50 was < 250 nM.

Q: What about the EC50 (LXRβ) of the same compound?
A: The EC50 was > 10000 nM.

Q: With `Cc1cccnc1OC[C@@H](C)[C@H]1CC[C@H]2[C@@H]3CC=C4C[C@@H](O)CC[C@]4(C)[C@H]3CC[C@]12C` [Example 261, (3S,8S,9S,10R,13S,14S,17R)-10,13-dimethyl-17-((S)-1-((3-methylpyridin-2-yl)oxy)propan-2-yl)-2,3,4,7,8,9,10,11,12,13,14,15,16,17-tetradecahydro-1H-cyclopenta[a]phenanthren-3-ol] as the compound, how does the IC50 (SREBP-2) read?
A: The IC50 was < 250 nM.

Q: What about the EC50 (LXRβ) of the same compound?
A: Its EC50 is > 10000 nM.

Q: Which IC50 (SREBP-2) does the source give for `Cc1noc(C(=O)N2CCN(C(=O)CC[C@@H](C)[C@H]3CC[C@H]4[C@@H]5CC=C6C[C@@H](O)CC[C@]6(C)[C@H]5CC[C@]34C)CC2)n1` [Example 292, (R)-4-((3S,8S,9S,10R,13R,14S,17R)-3-hydroxy-10,13-dimethyl-2,3,4,7,8,9,10,11,12,13,14,15,16,17-tetradecahydro-1H-cyclopenta[a]phenanthren-17-yl)-1-(4-(3-methyl-1,2,4-oxadiazole-5-carbonyl)piperazin-1-yl)pentan-1-one] here?
A: Its IC50 is < 250 nM.

Q: What about the EC50 (LXRβ) of the same compound?
A: The EC50 was > 10000 nM.

Q: What does the source list for `C[C@H](CCC(=O)N1CCN(c2cnccn2)CC1)[C@H]1CC[C@H]2[C@@H]3CC=C4C[C@@H](O)CC[C@]4(C)[C@H]3CC[C@]12C` [Example 304, (R)-4-((3S,8S,9S,10R,13R,14S,17R)-3-hydroxy-10,13-dimethyl-2,3,4,7,8,9,10,11,12,13,14,15,16,17-tetradecahydro-1H-cyclopenta[a]phenanthren-17-yl)-1-(4-(pyrazin-2-yl)piperazin-1-yl)pentan-1-one]?
A: IC50 (SREBP-2): < 250 nM; EC50 (LXRβ): > 10000 nM

Q: Which results are given for `COCCN(C)C(=O)OC[C@@H](C)[C@H]1CC[C@H]2[C@@H]3CC=C4C[C@@H](O)CC[C@]4(C)[C@H]3CC[C@]12C` [Example 349, (S)-2-((3S,8S,9S,10R,13S,14S,17R)-3-hydroxy-10,13-dimethyl-2,3,4,7,8,9,10,11,12,13,14,15,16,17-tetradecahydro-1H-cyclopenta[a]phenanthren-17-yl)propyl (2-methoxyethyl)(methyl)carbamate]?
A: IC50 (SREBP-2): < 250 nM; EC50 (LXRβ): > 10000 nM

Q: Which results are given for `CCCN(OC)C(=O)CC[C@@H](C)[C@H]1CC[C@H]2[C@@H]3CC=C4C[C@@H](O)CC[C@]4(C)[C@H]3CC[C@]12C` [Example 13, (R)-4-((3S,8S,9S,10R,13R,14S,17R)-3-hydroxy-10,13-dimethyl-2,3,4,7,8,9,10,11,12,13,14,15,16,17-tetradecahydro-1H-cyclopenta[a]phenanthren-17-yl)-N-methoxy-N-propylpentanamide]?
A: IC50 (SREBP-2): < 250 nM; EC50 (LXRβ): 250 to 1000 nM

Q: For `COC(=O)N1CCSC12CN(C(=O)CC[C@@H](C)[C@H]1CC[C@H]3[C@@H]4CC=C5C[C@@H](O)CC[C@]5(C)[C@H]4CC[C@]13C)C2` [Example 553, Methyl 2-((R)-4-((3S,8S,9S,10R,13R,14S,17R)-3-hydroxy-10,13-dimethyl-2,3,4,7,8,9,10,11,12,13,14,15,16,17-tetradecahydro-1H-cyclopenta[a]phenanthren-17-yl)pentanoyl)-5-thia-2,8-diazaspiro[3.4]octane-δ-carboxylate], which IC50 (SREBP-2) is on record?
A: The IC50 was 250 to 1000 nM.

Q: And the EC50 (LXRβ)?
A: The EC50 was > 10000 nM.

Q: Which results are given for `CSC(=O)N1CCN(C(=O)CC[C@@H](C)[C@H]2CC[C@H]3[C@@H]4CC=C5C[C@@H](O)CC[C@]5(C)[C@H]4CC[C@]23C)CC1` [Example 551, (4R)-4-[(1R,3aS,3bS,7S,9aR,9bS,11aR)-7-hydroxy-9a,11a-dimethyl-1H,2H,3H,3aH,3bH,4H,6H,7H,8H,9H,9aH,9bH,10H,11H,11aH-cyclopenta[a]phenanthren-1-yl]-1-{4-[(methylsulfanyl)carbonyl]piperazin-1-yl}pentan-1-one]?
A: IC50 (SREBP-2): < 250 nM; EC50 (LXRβ): > 10000 nM

Q: Which results are given for `C[C@H](CCC(=O)N(C)CCc1cccnc1)[C@H]1CC[C@H]2[C@@H]3CC=C4C[C@@H](O)CC[C@]4(C)[C@H]3CC[C@]12C` [Example 543, (R)-4-((3S,8S,9S,10R,13R,14S,17R)-3-hydroxy-10,13-dimethyl-2,3,4,7,8,9,10,11,12,13,14,15,16,17-tetradecahydro-1H-cyclopenta[a]phenanthren-17-yl)-N-methyl-N-(2-(pyridin-3-yl)ethyl)pentanamide]?
A: IC50 (SREBP-2): < 250 nM; EC50 (LXRβ): 250 to 1000 nM

Q: `C[C@H](C(=O)Nc1ccncc1)[C@H]1CC[C@H]2[C@@H]3CC=C4C[C@@H](O)CC[C@]4(C)[C@H]3CC[C@]12C` [Example 600, (S)-2-((3S,8S,9S,10R,13S,14S,17R)-3-hydroxy-10,13-dimethyl-2,3,4,7,8,9,10,11,12,13,14,15,16,17-tetradecahydro-1H-cyclopenta[a]phenanthren-17-yl)-N-(pyridin-4-yl)propanamide] was tested. Which IC50 (SREBP-2) did it give?
A: The IC50 was 1000 to 10000 nM.

Q: And the EC50 (LXRβ)?
A: The EC50 was > 10000 nM.

Q: What does the source list for `C[C@H](C(=O)NCc1ccncc1)[C@H]1CC[C@H]2[C@@H]3CC=C4C[C@@H](O)CC[C@]4(C)[C@H]3CC[C@]12C` [Example 599, (S)-2-((3S,8S,9S,10R,13S,14S,17R)-3-hydroxy-10,13-dimethyl-2,3,4,7,8,9,10,11,12,13,14,15,16,17-tetradecahydro-1H-cyclopenta[a]phenanthren-17-yl)-N-(pyridin-4-ylmethyl)propanamide]?
A: IC50 (SREBP-2): 1000 to 10000 nM; EC50 (LXRβ): > 10000 nM

Q: How did the IC50 (SREBP-2) turn out when `C[C@H](CCC(=O)N1CCN(C(=O)N(C)CC2CC2)C[C@@H]1C)[C@H]1CC[C@H]2[C@@H]3CC=C4C[C@@H](O)CC[C@]4(C)[C@H]3CC[C@]12C` [Example 637, (S)—N-(cyclopropylmethyl)-4-((R)-4-((3S,8S,9S,10R,13R,14S,17R)-3-hydroxy-10,13-dimethyl-2,3,4,7,8,9,10,11,12,13,14,15,16,17-tetradecahydro-1H-cyclopenta[a]phenanthren-17-yl)pentanoyl)-N,3-dimethylpiperazine-1-carboxamide] was run?
A: Its IC50 is < 250 nM.

Q: What about the EC50 (LXRβ) of the same compound?
A: The EC50 was > 10000 nM.

Q: With `COC(=O)N1CCN(C(=O)[C@@H](C)[C@H]2CC[C@H]3[C@@H]4CC=C5C[C@@H](O)CC[C@]5(C)[C@H]4CC[C@]23C)CC1` [Example 598, methyl 4-((S)-2-((3S,8S,9S,10R,13S,14S,17R)-3-hydroxy-10,13-dimethyl-2,3,4,7,8,9,10,11,12,13,14,15,16,17-tetradecahydro-1H-cyclopenta[a]phenanthren-17-yl)propanoyl)piperazine-1-carboxylate] as the compound, how does the IC50 (SREBP-2) read?
A: Its IC50 is 1000 to 10000 nM.

Q: What about the EC50 (LXRβ) of the same compound?
A: The EC50 was > 10000 nM.

Q: What does the source list for `COc1nnccc1N1CCN(C(=O)CC[C@@H](C)[C@H]2CC[C@H]3[C@@H]4CC=C5C[C@@H](O)CC[C@]5(C)[C@H]4CC[C@]23C)CC1` [Example 629, (R)-4-((3S,8S,9S,10R,13R,14S,17R)-3-hydroxy-10,13-dimethyl-2,3,4,7,8,9,10,11,12,13,14,15,16,17-tetradecahydro-1H-cyclopenta[a]phenanthren-17-yl)-1-(4-(3-methoxypyridazin-4-yl)piperazin-1-yl)pentan-1-one]?
A: IC50 (SREBP-2): < 250 nM; EC50 (LXRβ): > 10000 nM

Q: `COc1cncnc1N1CCN(C(=O)CC[C@@H](C)[C@H]2CC[C@H]3[C@@H]4CC=C5C[C@@H](O)CC[C@]5(C)[C@H]4CC[C@]23C)C[C@@H]1C` [Example 615, (R)-4-((3S,8S,9S,10R,13R,14S,17R)-3-hydroxy-10,13-dimethyl-2,3,4,7,8,9,10,11,12,13,14,15,16,17-tetradecahydro-1H-cyclopenta[a]phenanthren-17-yl)-1-((S)-4-(5-methoxypyrimidin-4-yl)-3-methylpiperazin-1-yl)pentan-1-one] was tested. Which IC50 (SREBP-2) did it give?
A: The IC50 was < 250 nM.

Q: And the EC50 (LXRβ)?
A: The EC50 was > 10000 nM.

Q: How did the IC50 (SREBP-2) turn out when `C[C@H](CCC(=O)N1CC2(C1)CC(C)(CO)C2)[C@H]1CC[C@H]2[C@@H]3CC=C4C[C@@H](O)CC[C@]4(C)[C@H]3CC[C@]12C` [Example 372, (R)-4-((3S,8S,9S,10R,13R,14S,17R)-3-hydroxy-10,13-dimethyl-2,3,4,7,8,9,10,11,12,13,14,15,16,17-tetradecahydro-1H-cyclopenta[a]phenanthren-17-yl)-1-(6-(hydroxymethyl)-6-methyl-2-azaspiro[3.3]heptan-2-yl)pentan-1-one] was run?
A: The IC50 was < 250 nM.

Q: And the EC50 (LXRβ)?
A: Its EC50 is > 10000 nM.
